Results on 1 compound are retold here after patent US6989263B1, “Method for identifying and using compounds that inactivate HIV-1 and other retroviruses by attacking highly conserved zinc fingers in the viral nucleocapsid protein” (The United States of America as represented by the …, priority 1994, dated 2006).

Data set [1] deals with T1, p11 Nucleocapsid Protein (p11NC) (Equine infectious anemia virus, UniProt P69732).
T1 construct: a variety of disulfide reagents cross-link the p11NC protein in intact viral particles; endogenous in cells; host or cells: intact EIAV particles
T1 sequence (P69732 360-435): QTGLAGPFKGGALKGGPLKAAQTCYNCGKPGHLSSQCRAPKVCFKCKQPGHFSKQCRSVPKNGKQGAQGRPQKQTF
Put plainly: Cross-linking of p11NC in intact EIAV particles (gel-mobility shift). It is filed as biochemical. The settings on record: intact EIAV (50 μM), 4× the HIV assay concentrations. The source says: Essentially the same strategy was employed to analyze the ability of the various disulfide reagents to cross-link the p11 Nucleocapsid Protein (p11NC) in intact Equine Infectious Anemia Virus (EIAV) particles. The advantages of working with EIAV include the fact that it is not a human pathogen, and that the p11NC protein can be visualized by simple coomassie-blue staining after performing the gel-mobility shift assay (rather than by western blotting as for HIV) described above. The reaction conditions were essentially the same for the EIAV assays as for the HIV assays described above, except that the concentration of virus and disulfide reagent was 4× the concentrations used in the HIV assay above. The second number in each cell in the X-link column in Table 2 represents the time required to cross-link one-half of the p11NC protein in the intact viral particles. […] The bottom number in each cell of the X-link column, unless otherwise indicated, represents the concentration of EIAV used in the assay. Blank cells throughout Table 2 indicate that the compound has yet to be tested for the specified property.

In data set [2] the test system is HIV-1. The settings on record: PCR and viral inactivation assays.
Method: (§1) Concomitantly, the drug treated virions are tested for activity. The virions are suspended in media (rather than solubilized) and added to target cells. The cultures are then examined to determine whether the virions are still active.
The target of a further data set is T2, p7NC (Human immunodeficiency virus type 1 group M subtype B, UniProt P05888).
T2 construct: The NC protein of HIV-1 (MN) p7NC was expressed in E. coli; made in house; host or cells: E. coli (vector pMAL-c)
Put plainly: HPLC analysis of reaction products of purified p7NC with reagent. It is filed as biochemical, HIV-1. Details: key to Protein (HPLC): reaction products / Protein (HPLC): reaction rate: formation of non-native, intra-protein disulfide links (designated “Disulfides”); some of the reagents form adducts with the cysteine residues as well (designated “Adducts”); slow: “Slow” reactions are those in which greater than 10% of the p7NC protein remained in its native form after the 10 minute incubation with reagent; very slow: “Very slow” reactions are those in which greater than 50% of the p7NC protein remained in its native form after the 10 minute incubation with reagent; fast: “Fast” reactions result in complete transformation of the p7NC protein to non-native conformations during the 10 minute incubation period. In short, it runs like this:
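Purified zinc-reconstituted p7NC (63 μM) incubated 10 min with reagent at 6:1 reagent:protein; products resolved by reversed-phase C-18 HPLC at pH 2 (0.05% TFA) with acetonitrile gradient. Rated fast (full conversion), slow (>10% native remaining) or very slow (>50% native remaining).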

The conditions of data set [3]: cited from earlier work.
Data set [4] relates to SSFV (spleen focus forming virus). In words: Survival of mice infected with SSFV. It is filed as in vivo. The settings on record: oral doses, versus infected untreated mice. From the text: Mice susceptible to the retrovirus SSFV (spleen focus forming virus) when injected with the virus die within 35–40 days as a result of virally-mediated transformation of cells of the spleen.

Data set [5] concerns HIV-1. In words: microbe, parasite or virus in culture. The settings on record: Human immunodeficiency virus 1, read-out: TCID (Virus): concentration of reagent required to inactivate half of a standardized number of HIV-1 virus particles.
Method: as §1
Data set [6] addresses T3, HIV NC protein in intact virus (Human immunodeficiency virus type 1 group M subtype B, UniProt P05888).
T3 construct: endogenous in cells; host or cells: intact HIV virions
Put plainly: Cross-linking of NC protein in intact HIV (non-reducing gel-mobility shift, western blot). The data set is classed as biochemical, HIV-1. The following applies: intact HIV generally 12.5 μM, reagent generally 25 μM. From the text: Purified concentrated retrovirus and antisera against the purified NC protein of the virus can be used to test the ability of a specific compound to penetrate the virus and react with the NC protein by forming disulfide complexes in the core of the virus. The compound is mixed with the whole retrovirus under reaction conditions appropriate for the compound. The virus is then removed from the reagent by centrifugation and disrupted in, e.g, standard SDS-PAGE sample buffer with (reduced) and without (non-reduced) 2-mercaptoethanol. The viral proteins are then separated by standard SDS-PAGE and the sample examined for the presence or absence of the monomeric NC protein in the non-reduced sample. Depending upon the virus used in the experiment and the conditions of electrophoresis, the NC protein can be visualized by protein staining methods, or by immuno-blot (e.g., western) methods. Compounds which react with the NC protein by attacking the zinc finger complexes and forming disulfide cross-linked products (i.e., which generate multimers in the mobility shift assay) inactivate the virus. Thus, compounds of interest (i.e., those which cause cross-linking) reduced the amount of monomeric NC protein detected.
In order to determine whether HIV-1MN was inactivated by NOBA, the virus was incubated with varying concentrations of NOBA (3.0, 0.3, 0.03 and 0 mM) as in Table 1. The reaction products were pelleted by centrifugation, and separated by SDS-PAGE under reducing (2% 2-mercaptoethanol, panel A), or non-reducing conditions (panel B). p7NC was visualized by immunoblot analysis using monospecific rabbit antisera to the purified NC proteins as per L. E. Henderson et al., J. Virol. 66:1856 (1992).
Disulfide reagents were further tested for their ability to disrupt NC structure in the virus, based on their ability to cause inter-NC cysteine disulfide bonds (i.e., cross-linking) in the intact virus. The formation of inter-NC cysteine disulfides creates NC multimers, which migrate through a non-reducing gel at a different rate than NC monomers, as described above. Intact HIV virus (generally 12.5 μM) was exposed to the specified reagent (generally 25 μM) for varying lengths of time and electrophoresed through a non-reducing SDS-polyacrylamide gel. HIV NC monomers and multimers were visualized by western blot analysis as described above in Example 3. The approximate time required to cross-link one-half of the NC proteins in the virus at the specified reaction conditions was then determined. […] The top number in the cells of the X-link column in Table 2 refers to the approximate time in minutes required for one-half of the HIV NC proteins to become cross-linked.
On the technique in general: A western blot detects proteins with antibodies after separation by electrophoresis.

pIC50: −log10 of the molar value. Read-outs that look alike come from different tables or passages of the source.

Consider `CCN(CC)C(=S)SSC(=S)N(CC)CC` [Tetraethylthiuram Disulfide, reference compound], for which, in data set [1], the “X-link T-½ (min), EIAV p11NC (second number)” value was roughly 15 min. Further, the entries for the “inactivation of HIV-1 virus / infectivity, in words” value in the data set on HIV-1 [2] and in the data set on HIV-1 [2] (listed as Tetraethylthiuram disulfide) were “inactivates the virus” and “inactivate HIV-1 virus”, respectively. Also, on p7NC, the “reaction with purified p7NC (HPLC), in words” value is “reacts with p7NC to form oxidized p7 (disulfides)”. For the same compound, the “Protein (HPLC): reaction products” value at p7NC (63 μM p7NC, 6 reagent : 1 protein, 10 minutes) is “Disulfides”. Further, the “Toxicity (LD-50, mouse)” value in data set [3] (IP) was 75 mg/kg; in data set [3] (oral), 1980 mg/kg. In addition, the “survival after SSFV infection” value in data set [4] was “survived SSFV infection significantly longer”. Further, the pIC50 in the data set on HIV-1 [5] was 4.18. The “X-link T-½ (min), HIV NC protein (top number)” value in data set [6] is reported as roughly 15 min.
